In PMC6482291, “Anticonvulsant Activity of Pterostilbene in Zebrafish and Mouse Acute Seizure Tests” (Neurochemical Research, 2019):

Tests used:
mice = experiment: Grip-strength test; type: in vivo; conditions: for Neuromuscular strength: 30 min before test
Protocol: The acute effect of PTE on the skeletal muscles strength in mice was determined in the grip strength test. The apparatus for this test (BioSeb, Chaville, France) consisted of a steel wire grid (8 × 8 cm) connected to an isometric force transducer. Each mouse was lifted by tail and allowed to grasp the grid with its forepaws and then it was gently pulled backward until its released the grid. The maximal force in newtons (N) exerted by mouse before leaving the grid was recorded. The mean of three consecutive measurements for each animal was calculated and normalized to body weight (mN/g).
Experimental groups consisted of 12 animals. Results obtained in the grip-strength test were compared using one-way ANOVA followed by the Tukey’s post-hoc multiple comparison test.

[1] = test system: maximal electroshock seizures in mice; experiment: Maximal electroshock seizure threshold (MEST) test; type: in vivo; conditions: for CS50 (seizure threshold): 30 min before test, 95% confidence limits in brackets
From the text: Seizures in the MEST test were evoked by applying a sine-wave alternating current (maximal output voltage 500 V, 50 Hz for 0.2 s) generated by constant current stimulator (Rodent Shocker, Type 221, Hugo Sachs Elektronik, Freiburg, Germany). The stimulation was delivered by saline-socked transcorneal electrodes. Before the stimulation 1% solution of tetracaine hydrochloride was applied into animals’ eyes for local anesthesia. During the stimulation animals were restrained manually and immediately after the stimulation they were placed in the Plexiglas box for observation. The endpoint evaluated in the test was the maximal electroconvulsion which was defined as extension of the hindlimbs above a 90° angle to the torso of animal.
The threshold for maximal electroshock was determined according to the up-and-down method described by Kimball et al.. The mice in the experimental group were subjected to the stimuli with different current intensities (range of 8–30 mA) which changes in 0.06-log steps. If stimulated mouse respond with seizures, the next mouse in the group was stimulated with current of intensity 0.06-log step lower than the previous one. […] Groups of 20 stimulated animals were used to calculate the threshold current strength (CS50 in mA; the current strength which induces tonic hindlimb extension in 50% of the tested animals) with SEM.
CS50 values were compared with one-way ANOVA followed by the Tukey’s multiple comparison test.

In the case of COc1cc(/C=C/c2ccc(O)cc2)cc(OC)c1 [PTE, trans-3,5-dimethoxy-4′-hydroxy-trans-stilbene], the Neuromuscular strength (mice; PTE 50 mg/kg ip) is reported as 30.34 ± 1.16 mN/g, the Neuromuscular strength (mice; PTE 100 mg/kg ip) is reported as 29.14 ± 0.95 mN/g and the Neuromuscular strength (mice; PTE 200 mg/kg ip) is reported as 28.76 ± 2.16 mN/g. It also gave a Neuromuscular strength (mice; PTE 400 mg/kg ip) of 30.39 ± 2.17 mN/g, a Neuromuscular strength (mice; PTE 600 mg/kg ip) of 30.19 ± 0.97 mN/g and a Neuromuscular strength (mice; PTE 800 mg/kg ip) of 31.12 ± 1.44 mN/g. For the same compound, the “influence on muscular strength” value (mice; PTE 50 to 800 mg/kg ip) was “did not significantly influence”, the “CS50 (seizure threshold)” value ([1]; PTE 100 mg/kg ip) was 11.40 (10.93–11.87) mA and the “CS50 (seizure threshold)” value ([1]; PTE 200 mg/kg ip) was 16.22 (14.80–17.78) mA. For the same compound, the “increase of seizure threshold vs negative control” value ([1]; PTE 200 mg/kg ip, p < 0.001) was “over 70%” and the “seizure threshold higher than in VPA-treated group (150 mg/kg)” value ([1]; PTE 200 mg/kg ip, p < 0.05) was 15%.
